Earlier results as cited in patent US7481758B2, “Pharmaceutically enhanced low-energy radiosurgery” (Sirius Medicine, LLC, priority 1997, dated 2009).

Legend:
lymphocytes = conditions: in lymphocytes; low-energy photons
brain tumors = conditions: low-energy x-rays and iodine, brain tumors in rabbits

In the case of `II` [iodine], the dose enhancement (lymphocytes) is given as “up to 3” and the dose enhancement (brain tumors) is given as “about 30%”.
